ChEMBL document CHEMBL5113455, “Discovery of benzyloxyphenyl- and phenethylphenyl-imidazole derivatives as a new class of ante-drug type boosters” (Bioorg Med Chem Lett, 2022)

tested on: not listed separately; experiment: Drug metabolism in rat liver microsome assessed as metabolite 4-[(4-imidazol-1-ylphenoxy)methyl]benzoic acid formation at 10 uM and measured upto 30 mins by liquid chromatography-tandem mass spectrometry; assay type: ADME; conditions: microsomes, 0.5 h

Row | SMILES | Drug metabolism
1 | COC(=O)c1ccc(COc2ccc(-n3ccnc3)cc2)cc1 | Metabolite_Detected

tested on: CYP3A4; experiment: in vitro; conditions: rat, microsomes

Row | SMILES | inhibition at 10 min, 10 µM
2 | CC(=O)N1CCN(c2ccc(OCC3COC(Cn4ccnc4)(c4ccc(Cl)cc4Cl)O3)cc2)CC1 (centres undefined) [KETOCONAZOLE] | 94.4%

same assay, conditions: rat, rat liver microsomes, probe midazolam

Row | SMILES | inhibition at 10 min, 10 µM
3 | CCOC(=O)COc1ccc(-n2ccnc2)cc1 | 12.7%
4 | O=C(OCC(F)(F)F)c1ccc(COc2ccc(-n3ccnc3)cc2)cc1 | 10.4%
5 | CCOC(=O)c1ccc(CCc2ccc(-n3ccnc3)cc2)cc1 | 74%
6 | COC(=O)c1ccc(CCc2ccc(-n3ccnc3)cc2)cc1 | 82.8%
7 | OCCOc1ccc(-n2ccnc2)cc1 | 6.7%
8 | c1ccc(COc2ccc(-n3ccnc3)cc2)cc1 | 82.5%
9 | CCCCOC(=O)c1ccc(COc2ccc(-n3ccnc3)cc2)cc1 | 39.9%
10 | O=C(Oc1ccc(-n2ccnc2)cc1)c1ccc(Cl)cc1 | 16.5%
11 | COC(=O)c1ccc(COc2ccc(-n3ccnc3)cc2)cc1 | 72%
12 | CCC(C)COC(=O)c1ccc(COc2ccc(-n3ccnc3)cc2)cc1 (centres undefined) | 58.4%
13 | CCCOC(=O)c1ccc(COc2ccc(-n3ccnc3)cc2)cc1 | 42.6%
14 | O=C(Oc1ccc(-n2ccnc2)cc1)c1ccc(C(F)(F)F)cc1 | 15.6%
15 | O=C(O)c1ccc(CCc2ccc(-n3ccnc3)cc2)cc1 | 15.5%
16 | CC(=O)OCCOc1ccc(-n2ccnc2)cc1 | 34.7%
17 | CC(=O)OCc1ccc(COc2ccc(-n3ccnc3)cc2)cc1 | 87.1%
18 | CCCCCCOC(=O)c1ccc(COc2ccc(-n3ccnc3)cc2)cc1 | 72.2%
19 | O=C(O)c1ccc(COc2ccc(-n3ccnc3)cc2)cc1 | 15.5%
20 | O=C(OCCc1ccccc1)c1ccc(COc2ccc(-n3ccnc3)cc2)cc1 | 61.8%
21 | CCCOC(=O)c1ccc(CCc2ccc(-n3ccnc3)cc2)cc1 | 90.4%
22 | OCc1ccc(COc2ccc(-n3ccnc3)cc2)cc1 | 84.7%
23 | N#Cc1ccc(COc2ccc(-n3ccnc3)cc2)cc1 | 88.1%
24 | Nn1nnc2ccccc21 | 80.8%
